# From ChEMBL document CHEMBL5724914, “Linking interpersonal differences in gut microbiota composition and drug biotransformation activity” (2024)
# Key:
# [1] = (§1) The drug is tested on Z-020 corresponding to rabbit gut metagenome with ENA study accession number: PRJEB37062 and ENA sample accession number: ERS12561819 for biotransformation under anaerobic condition. The drug concentrations were measured over 9 timepoints collected between 0 and 24 hours of incubation by liquid-chromatography-coupled mass spectrometry (LC–MS); details: 2 µM
# [2] = as §1, with “Z-025” for “Z-020”, “ERS12561824” for “ERS12561819”; details: 2 µM
# [3] = as §1, with “WLS-220” for “Z-020”, “human” for “rabbit”, “ERS12561769” for “ERS12561819”; details: 2 µM
# [4] = human gut metagenome, 24 h, 2 µM
# [5] = human gut metagenome, 24 h, 2 µM; remark: listed apart in the source
# [6] = human gut metagenome, 24 h, 2 µM; remark: listed apart in the source
# [7] = human gut metagenome, 24 h, 2 µM; remark: listed apart in the source
# [8] = as §1, with “Z-018” for “Z-020”, “pig” for “rabbit”, “ERS12561817” for “ERS12561819”; details: 2 µM
# [9] = as §1, with “WLS-370” for “Z-020”, “human” for “rabbit”, “ERS12561793” for “ERS12561819”; details: 2 µM
# [10] = human gut metagenome, 24 h, 2 µM; remark: listed apart in the source
# [11] = as §1, with “WLS-010” for “Z-020”, “human” for “rabbit”, “ERS12561743” for “ERS12561819”; details: 2 µM
# [12] = as §1, with “Z-014” for “Z-020”, “rat” for “rabbit”, “ERS12561814” for “ERS12561819”; details: 2 µM
# [13] = as §1, with “WLS-007” for “Z-020”, “human” for “rabbit”, “ERS12561742” for “ERS12561819”; details: 2 µM
# [14] = human gut metagenome, 24 h, 2 µM; remark: listed apart in the source
# [15] = as §1, with “WLS-170” for “Z-020”, “human” for “rabbit”, “ERS12561762” for “ERS12561819”; details: 2 µM
# [16] = human gut metagenome, 24 h, 2 µM; remark: listed apart in the source
# [17] = as §1, with “Z-012” for “Z-020”, “to” for “to rabbit gut”, “ERS12561812” for “ERS12561819”; details: 2 µM
# [18] = human gut metagenome, 24 h, 2 µM; remark: listed apart in the source
# [19] = as §1, with “Z-017” for “Z-020”, “mouse” for “rabbit”, “ERS12561816” for “ERS12561819”; details: 2 µM
# [20] = human gut metagenome, 24 h, 2 µM; remark: listed apart in the source
# Further: call rule not given here.
Bacterial Biotransformation [1],Bacterial Biotransformation [2],Bacterial Biotransformation [3],Bacterial Biotransformation [4],Bacterial Biotransformation [5],Bacterial Biotransformation [6],Bacterial Biotransformation [7],Bacterial Biotransformation [8],Bacterial Biotransformation [9],Bacterial Biotransformation [10],Bacterial Biotransformation [11],Bacterial Biotransformation [12],Bacterial Biotransformation [13],Bacterial Biotransformation [14],Bacterial Biotransformation [15],Bacterial Biotransformation [16],Bacterial Biotransformation [17],Bacterial Biotransformation [18],Bacterial Biotransformation [19],Bacterial Biotransformation [20],Compound
Compound NOT metabolized,Compound NOT metabolized,Compound metabolized,Compound NOT metabolized,Compound metabolized,Compound metabolized,Compound metabolized,Compound NOT metabolized,Compound NOT metabolized,Compound NOT metabolized,Compound metabolized,Compound NOT metabolized,Compound NOT metabolized,Compound metabolized,Compound metabolized,Compound metabolized,Compound NOT metabolized,Compound NOT metabolized,Compound NOT metabolized,Compound NOT metabolized,COc1ccc2cc([C@H](C)C(=O)O)ccc2c1 [NAPROXEN]
Compound metabolized,Compound metabolized,Compound metabolized,Compound metabolized,Compound metabolized,Compound metabolized,Compound metabolized,Compound metabolized,Compound metabolized,Compound metabolized,Compound metabolized,Compound NOT metabolized,Compound metabolized,Compound metabolized,Compound metabolized,Compound metabolized,Compound metabolized,Compound metabolized,Compound metabolized,Compound metabolized,COc1ccnc(C[S+]([O-])c2nc3ccc(OC(F)F)cc3[nH]2)c1OC (stereo not given) [PANTOPRAZOLE]
Compound NOT metabolized,Compound NOT metabolized,Compound metabolized,Compound NOT metabolized,Compound metabolized,Compound metabolized,Compound metabolized,Compound NOT metabolized,Compound metabolized,Compound metabolized,Compound metabolized,Compound NOT metabolized,Compound metabolized,Compound metabolized,Compound metabolized,Compound metabolized,Compound NOT metabolized,Compound NOT metabolized,Compound NOT metabolized,Compound NOT metabolized,O=C1N=C([O-])NC1(c1ccccc1)c1ccccc1.[Na+] [PHENYTOIN SODIUM]
Compound NOT metabolized,Compound metabolized,Compound metabolized,Compound NOT metabolized,Compound NOT metabolized,Compound metabolized,Compound metabolized,Compound NOT metabolized,Compound metabolized,Compound NOT metabolized,Compound NOT metabolized,Compound NOT metabolized,Compound metabolized,Compound metabolized,Compound metabolized,Compound NOT metabolized,Compound NOT metabolized,Compound NOT metabolized,Compound NOT metabolized,Compound NOT metabolized,CN(CCOc1ccc(CC2SC(=O)NC2=O)cc1)c1ccccn1.O=C(O)/C=C\C(=O)O (stereo not given) [ROSIGLITAZONE MALEATE]
Compound metabolized,Compound metabolized,Compound metabolized,Compound metabolized,Compound metabolized,Compound metabolized,Compound metabolized,Compound metabolized,Compound metabolized,Compound metabolized,Compound metabolized,Compound metabolized,Compound metabolized,Compound metabolized,Compound metabolized,Compound metabolized,Compound metabolized,Compound metabolized,Compound metabolized,Compound metabolized,O=C(O)c1cc(/N=N/c2ccc(S(=O)(=O)Nc3ccccn3)cc2)ccc1O [SULFASALAZINE]

# The remaining lines, values behind:
Compound,Bacterial Biotransformation [1],Bacterial Biotransformation [2],Bacterial Biotransformation [3],Bacterial Biotransformation [4],Bacterial Biotransformation [5],Bacterial Biotransformation [6],Bacterial Biotransformation [7],Bacterial Biotransformation [8],Bacterial Biotransformation [9],Bacterial Biotransformation [10],Bacterial Biotransformation [11],Bacterial Biotransformation [12],Bacterial Biotransformation [13],Bacterial Biotransformation [14],Bacterial Biotransformation [15],Bacterial Biotransformation [16],Bacterial Biotransformation [17],Bacterial Biotransformation [18],Bacterial Biotransformation [19],Bacterial Biotransformation [20]
C#C[C@]1(OC(C)=O)CC[C@H]2[C@@H]3CCC4=C/C(=N/O)CC[C@@H]4[C@H]3CC[C@@]21CC [NORGESTIMATE],Compound NOT metabolized,Compound NOT metabolized,Compound metabolized,Compound NOT metabolized,Compound NOT metabolized,Compound NOT metabolized,Compound metabolized,Compound NOT metabolized,Compound NOT metabolized,Compound metabolized,Compound metabolized,Compound NOT metabolized,Compound metabolized,Compound metabolized,Compound metabolized,Compound metabolized,Compound NOT metabolized,Compound metabolized,Compound NOT metabolized,Compound NOT metabolized
CC(C)c1nc(N(C)S(C)(=O)=O)nc(-c2ccc(F)cc2)c1/C=C/[C@@H](O)C[C@@H](O)CC(=O)[O-].CC(C)c1nc(N(C)S(C)(=O)=O)nc(-c2ccc(F)cc2)c1/C=C/[C@@H](O)C[C@@H](O)CC(=O)[O-].[Ca+2] [ROSUVASTATIN CALCIUM],Compound NOT metabolized,Compound NOT metabolized,Compound metabolized,Compound NOT metabolized,Compound metabolized,Compound metabolized,Compound metabolized,Compound NOT metabolized,Compound metabolized,Compound metabolized,Compound metabolized,Compound NOT metabolized,Compound metabolized,Compound metabolized,Compound metabolized,Compound NOT metabolized,Compound NOT metabolized,Compound NOT metabolized,Compound NOT metabolized,Compound NOT metabolized
C=CC[C@@H]1/C=C(\C)C[C@H](C)C[C@H](OC)[C@H]2O[C@@](O)(C(=O)C(=O)N3CCCC[C@H]3C(=O)O[C@H](/C(C)=C/[C@@H]3CC[C@@H](O)[C@H](OC)C3)[C@H](C)[C@@H](O)CC1=O)[C@H](C)C[C@@H]2OC.O [TACROLIMUS],Compound NOT metabolized,Compound NOT metabolized,Compound metabolized,Compound metabolized,Compound metabolized,Compound metabolized,Compound metabolized,Compound NOT metabolized,Compound metabolized,Compound metabolized,Compound metabolized,Compound NOT metabolized,Compound NOT metabolized,Compound metabolized,Compound metabolized,Compound metabolized,Compound NOT metabolized,Compound metabolized,Compound NOT metabolized,Compound metabolized
